{"source": "patent US9468213B2", "about": "“Herbicide formulation” (Syngenta Crop Protection LLC, priority 2008, dated 2016)", "key": {"[1]": {"experiment": "Comparative HPPD stability: decomposition of mesotrione in the formulation acidified by various acids", "format": "physicochemical", "protocol": "The final formulation is prepared by 134.4 grams of the S-metolachlor CS with 22.9 grams of water and under agitation adding 15.2 grams of the mesotrione millbase. This is followed by the addition of 152.7 grams of the Potassium Glyphosate concentrate and then 17.5 grams of the Rhodopol 23 pregel of the previous example. […]"}, "[2]": {"experiment": "Stability of mesotrione in chloroacetamides (Example 6, FIG. 1 and FIG. 2)", "format": "physicochemical", "settings": "in chloroacetamides (S-MOC=S-metolachlor)", "protocol": "Experiments were conducted to look at the stability of mesotrione in chloroacetamides."}}}
{"compound": "CS(=O)(=O)c1ccc(C(=O)C2C(=O)CCCC2=O)c([N+](=O)[O-])c1", "note": "[Mesotrione, 2-(2′-nitro-4′-methylsulphonylbenzoyl)-1,3-cyclohexanedione]", "values": [{"measurement": "Percentage Decomposition of Mesotrione", "setting": "[1]; Gluconic acid, 38 C., 1 MONTH", "value": 4.30, "unit": "%"}, {"measurement": "Percentage Decomposition of Mesotrione", "setting": "[1]; Gluconic acid, 38 C., 1 WEEK", "value": 1.59, "unit": "%"}, {"measurement": "Percentage Decomposition of Mesotrione", "setting": "[1]; Gluconic acid, 38 C., 2 MONTHS", "value": 7.42, "unit": "%"}, {"measurement": "Percentage Decomposition of Mesotrione", "setting": "[1]; Gluconic acid, 38 C., 2 WEEKS", "value": 1.77, "unit": "%"}, {"measurement": "Percentage Decomposition of Mesotrione", "setting": "[1]; Gluconic acid, 38 C., 3 MONTHS", "value": 11.23, "unit": "%"}, {"measurement": "Percentage Decomposition of Mesotrione", "setting": "[1]; Gluconic acid, 38 C., 3 WEEKS", "value": 3.00, "unit": "%"}, {"measurement": "Percentage Decomposition of Mesotrione", "setting": "[1]; Gluconic acid, 45 C., 1 MONTH", "value": 10.22, "unit": "%"}, {"measurement": "Percentage Decomposition of Mesotrione", "setting": "[1]; Gluconic acid, 45 C., 1 WEEK", "value": 1.75, "unit": "%"}, {"measurement": "Percentage Decomposition of Mesotrione", "setting": "[1]; Gluconic acid, 45 C., 2 MONTHS", "value": 23.39, "unit": "%"}, {"measurement": "Percentage Decomposition of Mesotrione", "setting": "[1]; Gluconic acid, 45 C., 2 WEEKS", "value": 4.91, "unit": "%"}, {"measurement": "Percentage Decomposition of Mesotrione", "setting": "[1]; Gluconic acid, 45 C., 3 MONTHS", "value": 35.81, "unit": "%"}, {"measurement": "Percentage Decomposition of Mesotrione", "setting": "[1]; Gluconic acid, 45 C., 3 WEEKS", "value": 6.77, "unit": "%"}, {"measurement": "Percentage Decomposition of Mesotrione", "setting": "[1]; Gluconic acid, 50 C., 1 MONTH", "value": 26.24, "unit": "%"}, {"measurement": "Percentage Decomposition of Mesotrione", "setting": "[1]; Gluconic acid, 50 C., 1 WEEK", "value": 5.91, "unit": "%"}, {"measurement": "Percentage Decomposition of Mesotrione", "setting": "[1]; Gluconic acid, 50 C., 2 MONTHS", "value": 54.80, "unit": "%"}, {"measurement": "Percentage Decomposition of Mesotrione", "setting": "[1]; Gluconic acid, 50 C., 2 WEEKS", "value": 11.61, "unit": "%"}, {"measurement": "Percentage Decomposition of Mesotrione", "setting": "[1]; Gluconic acid, 50 C., 3 DAYS", "value": 3.26, "unit": "%"}, {"measurement": "Percentage Decomposition of Mesotrione", "setting": "[1]; Gluconic acid, 50 C., 3 MONTHS", "value": 73.08, "unit": "%"}, {"measurement": "Percentage Decomposition of Mesotrione", "setting": "[1]; Gluconic acid, 50 C., 3 WEEKS", "value": 17.40, "unit": "%"}, {"measurement": "Percentage Decomposition of Mesotrione", "setting": "[1]; Gluconic acid, −18 C., 6 MONTHS", "value": "−0.18", "unit": "%"}, {"measurement": "Percentage Decomposition of Mesotrione", "setting": "[1]; No acid, 38 C., 1 MONTH", "value": 17.27, "unit": "%"}, {"measurement": "Percentage Decomposition of Mesotrione", "setting": "[1]; No acid, 38 C., 1 WEEK", "value": 4.63, "unit": "%"}, {"measurement": "Percentage Decomposition of Mesotrione", "setting": "[1]; No acid, 38 C., 2 MONTHS", "value": 25.52, "unit": "%"}, {"measurement": "Percentage Decomposition of Mesotrione", "setting": "[1]; No acid, 38 C., 2 WEEKS", "value": 9.97, "unit": "%"}, {"measurement": "Percentage Decomposition of Mesotrione", "setting": "[1]; No acid, 38 C., 3 MONTHS", "value": 31.02, "unit": "%"}, {"measurement": "Percentage Decomposition of Mesotrione", "setting": "[1]; No acid, 38 C., 3 WEEKS", "value": 13.05, "unit": "%"}, {"measurement": "Percentage Decomposition of Mesotrione", "setting": "[1]; No acid, 45 C., 1 MONTH", "value": 32.01, "unit": "%"}, {"measurement": "Percentage Decomposition of Mesotrione", "setting": "[1]; No acid, 45 C., 1 WEEK", "value": 11.97, "unit": "%"}, {"measurement": "Percentage Decomposition of Mesotrione", "setting": "[1]; No acid, 45 C., 2 MONTHS", "value": 49.76, "unit": "%"}, {"measurement": "Percentage Decomposition of Mesotrione", "setting": "[1]; No acid, 45 C., 2 WEEKS", "value": 19.71, "unit": "%"}, {"measurement": "Percentage Decomposition of Mesotrione", "setting": "[1]; No acid, 45 C., 3 MONTHS", "value": 62.57, "unit": "%"}, {"measurement": "Percentage Decomposition of Mesotrione", "setting": "[1]; No acid, 45 C., 3 WEEKS", "value": 25.71, "unit": "%"}, {"measurement": "Percentage Decomposition of Mesotrione", "setting": "[1]; No acid, 50 C., 1 MONTH", "value": 53.82, "unit": "%"}, {"measurement": "Percentage Decomposition of Mesotrione", "setting": "[1]; No acid, 50 C., 1 WEEK", "value": 20.39, "unit": "%"}, {"measurement": "Percentage Decomposition of Mesotrione", "setting": "[1]; No acid, 50 C., 2 MONTHS", "value": 77.94, "unit": "%"}, {"measurement": "Percentage Decomposition of Mesotrione", "setting": "[1]; No acid, 50 C., 2 WEEKS", "value": 35.25, "unit": "%"}, {"measurement": "Percentage Decomposition of Mesotrione", "setting": "[1]; No acid, 50 C., 3 DAYS", "value": 11.30, "unit": "%"}, {"measurement": "Percentage Decomposition of Mesotrione", "setting": "[1]; No acid, 50 C., 3 MONTHS", "value": 88.38, "unit": "%"}, {"measurement": "Percentage Decomposition of Mesotrione", "setting": "[1]; No acid, 50 C., 3 WEEKS", "value": 46.31, "unit": "%"}, {"measurement": "Percentage Decomposition of Mesotrione", "setting": "[1]; No acid, −18 C., 6 MONTHS", "value": 1.07, "unit": "%"}, {"measurement": "Percentage Decomposition of Mesotrione", "setting": "[1]; Phosphoric acid, 38 C., 1 MONTH", "value": 3.48, "unit": "%"}, {"measurement": "Percentage Decomposition of Mesotrione", "setting": "[1]; Phosphoric acid, 38 C., 1 WEEK", "value": 1.30, "unit": "%"}, {"measurement": "Percentage Decomposition of Mesotrione", "setting": "[1]; Phosphoric acid, 38 C., 2 MONTHS", "value": 5.08, "unit": "%"}, {"measurement": "Percentage Decomposition of Mesotrione", "setting": "[1]; Phosphoric acid, 38 C., 2 WEEKS", "value": 1.09, "unit": "%"}, {"measurement": "Percentage Decomposition of Mesotrione", "setting": "[1]; Phosphoric acid, 38 C., 3 MONTHS", "value": 7.65, "unit": "%"}, {"measurement": "Percentage Decomposition of Mesotrione", "setting": "[1]; Phosphoric acid, 38 C., 3 WEEKS", "value": 1.40, "unit": "%"}, {"measurement": "Percentage Decomposition of Mesotrione", "setting": "[1]; Phosphoric acid, 45 C., 1 MONTH", "value": 7.12, "unit": "%"}, {"measurement": "Percentage Decomposition of Mesotrione", "setting": "[1]; Phosphoric acid, 45 C., 1 WEEK", "value": 1.87, "unit": "%"}, {"measurement": "Percentage Decomposition of Mesotrione", "setting": "[1]; Phosphoric acid, 45 C., 2 MONTHS", "value": 14.59, "unit": "%"}, {"measurement": "Percentage Decomposition of Mesotrione", "setting": "[1]; Phosphoric acid, 45 C., 2 WEEKS", "value": 2.43, "unit": "%"}, {"measurement": "Percentage Decomposition of Mesotrione", "setting": "[1]; Phosphoric acid, 45 C., 3 MONTHS", "value": 23.48, "unit": "%"}, {"measurement": "Percentage Decomposition of Mesotrione", "setting": "[1]; Phosphoric acid, 45 C., 3 WEEKS", "value": 3.13, "unit": "%"}, {"measurement": "Percentage Decomposition of Mesotrione", "setting": "[1]; Phosphoric acid, 50 C., 1 MONTH", "value": 16.79, "unit": "%"}, {"measurement": "Percentage Decomposition of Mesotrione", "setting": "[1]; Phosphoric acid, 50 C., 1 WEEK", "value": 2.93, "unit": "%"}, {"measurement": "Percentage Decomposition of Mesotrione", "setting": "[1]; Phosphoric acid, 50 C., 2 MONTHS", "value": 36.38, "unit": "%"}, {"measurement": "Percentage Decomposition of Mesotrione", "setting": "[1]; Phosphoric acid, 50 C., 2 WEEKS", "value": 7.09, "unit": "%"}, {"measurement": "Percentage Decomposition of Mesotrione", "setting": "[1]; Phosphoric acid, 50 C., 3 DAYS", "value": 1.77, "unit": "%"}, {"measurement": "Percentage Decomposition of Mesotrione", "setting": "[1]; Phosphoric acid, 50 C., 3 MONTHS", "value": 58.11, "unit": "%"}, {"measurement": "Percentage Decomposition of Mesotrione", "setting": "[1]; Phosphoric acid, 50 C., 3 WEEKS", "value": 10.85, "unit": "%"}, {"measurement": "Percentage Decomposition of Mesotrione", "setting": "[1]; Phosphoric acid, −18 C., 6 MONTHS", "value": 0.94, "unit": "%"}, {"measurement": "Percentage Decomposition of Mesotrione", "setting": "[1]; Toluene-sulfonic acid, 38 C., 1 MONTH", "value": 2.81, "unit": "%"}, {"measurement": "Percentage Decomposition of Mesotrione", "setting": "[1]; Toluene-sulfonic acid, 38 C., 1 WEEK", "value": 0.75, "unit": "%"}, {"measurement": "Percentage Decomposition of Mesotrione", "setting": "[1]; Toluene-sulfonic acid, 38 C., 2 MONTHS", "value": 4.00, "unit": "%"}, {"measurement": "Percentage Decomposition of Mesotrione", "setting": "[1]; Toluene-sulfonic acid, 38 C., 2 WEEKS", "value": 0.78, "unit": "%"}, {"measurement": "Percentage Decomposition of Mesotrione", "setting": "[1]; Toluene-sulfonic acid, 38 C., 3 MONTHS", "value": 2.14, "unit": "%"}, {"measurement": "Percentage Decomposition of Mesotrione", "setting": "[1]; Toluene-sulfonic acid, 38 C., 3 WEEKS", "value": 1.74, "unit": "%"}, {"measurement": "Percentage Decomposition of Mesotrione", "setting": "[1]; Toluene-sulfonic acid, 45 C., 1 MONTH", "value": 5.85, "unit": "%"}, {"measurement": "Percentage Decomposition of Mesotrione", "setting": "[1]; Toluene-sulfonic acid, 45 C., 1 WEEK", "value": 1.64, "unit": "%"}, {"measurement": "Percentage Decomposition of Mesotrione", "setting": "[1]; Toluene-sulfonic acid, 45 C., 2 MONTHS", "value": 11.08, "unit": "%"}, {"measurement": "Percentage Decomposition of Mesotrione", "setting": "[1]; Toluene-sulfonic acid, 45 C., 2 WEEKS", "value": 3.06, "unit": "%"}, {"measurement": "Percentage Decomposition of Mesotrione", "setting": "[1]; Toluene-sulfonic acid, 45 C., 3 MONTHS", "value": 18.29, "unit": "%"}, {"measurement": "Percentage Decomposition of Mesotrione", "setting": "[1]; Toluene-sulfonic acid, 45 C., 3 WEEKS", "value": 4.12, "unit": "%"}, {"measurement": "Percentage Decomposition of Mesotrione", "setting": "[1]; Toluene-sulfonic acid, 50 C., 1 MONTH", "value": 13.91, "unit": "%"}, {"measurement": "Percentage Decomposition of Mesotrione", "setting": "[1]; Toluene-sulfonic acid, 50 C., 1 WEEK", "value": 2.32, "unit": "%"}, {"measurement": "Percentage Decomposition of Mesotrione", "setting": "[1]; Toluene-sulfonic acid, 50 C., 2 MONTHS", "value": 28.00, "unit": "%"}, {"measurement": "Percentage Decomposition of Mesotrione", "setting": "[1]; Toluene-sulfonic acid, 50 C., 2 WEEKS", "value": 5.94, "unit": "%"}, {"measurement": "Percentage Decomposition of Mesotrione", "setting": "[1]; Toluene-sulfonic acid, 50 C., 3 DAYS", "value": 2.11, "unit": "%"}, {"measurement": "Percentage Decomposition of Mesotrione", "setting": "[1]; Toluene-sulfonic acid, 50 C., 3 MONTHS", "value": 44.55, "unit": "%"}, {"measurement": "Percentage Decomposition of Mesotrione", "setting": "[1]; Toluene-sulfonic acid, 50 C., 3 WEEKS", "value": 9.69, "unit": "%"}, {"measurement": "Percentage Decomposition of Mesotrione", "setting": "[1]; Toluene-sulfonic acid, −18 C., 6 MONTHS", "value": 0.05, "unit": "%"}, {"measurement": "stability of mesotrione in chloroacetamides", "setting": "[2]", "value": "lack of stability"}]}
